{"source": "patent US8222414B2", "about": "“Indole compounds as an inhibitor of cellular necrosis” (LG Life Sciences Ltd., priority 2007, dated 2012)"}
{"tested_on": "primary hepatocytes isolated from rats", "test": "Cell protective effects against doxorubicin in hepatocytes (WST-1 cell viability)", "type": "cell-based", "settings": "Hepatocyte; primary rat hepatocytes pretreated with compound for 30 min, then doxorubicin; viability by WST-1 after 24-48 h", "protocol": "(§1) Various endogenous/exogenous attacks on the cells trigger the mechanisms of cell death which is broadly classified into two types, i.e. apoptosis or necrosis. Using these cell death mechanisms, in the present experimental example, primacy hepatocytes isolated from rats were treated with drugs which were clinically shown to result in serious side-effects of hepatocyte toxicity or various chemicals which derive cell death, and the compounds synthesized in the Examples were estimated for their hepatocyte protective effects, after 24-48 h. The substances used to derive hepatocyte death include CCl4, ActD, H2O2, doxorubicin, anti-Fas Ab/Actinomycin D, acetaminophen, EtOH, CdCl2, palmitate, stearate, cyclophosphamide, terfenadine, diclofenac, simvastatin, and adefovir. Primary hepatocytes were isolated using the method of Seglen P O (Experimental Cell Research 74 (1972) pp 450-454). Briefly, hepatocytes were isolated according to the two-step collagenase perfusion method, and dead cells were removed by low speed (500 rpm) centrifugation for 10 min using percoll gradient (Kreamer B L etc, In Vitro Cellular & Developmental Biology 22 (1986) pp 201-211). During this step, the viability of cells was maintained 90% or above. The cells were suspended in HepatoZYME media (Gibco BRL), and the number of cells was counted. 1.5×10^4 cells in 100 μl were placed into the collagen-coated 96-well plate (BD biocoat), and adhered on the bottom for 3-4 h.\n(§2) In order to assess the hepatocyte protective effect, above adhered cells were pretreated with the Example compounds for 30 min. At this time, the concentration of the Example compounds were serially diluted by 2-fold or 3-fold over 5 steps starting from 30 uM, 10 uM or 1 uM depending on the experiments, and the final concentration of DMSO was adjusted to 0.2%. 30 min after the treatment by compounds, cells were treated by the substances deriving hepatocyte death or hepatotoxic drugs at the concentrations indicated in Table 1. After 24-48 h, the viability of cells was determined to estimate the hepatocyte protective effects. The viability of cells was determined using WST-1 (MK-400, […]) method by the absorbance at 440 nm. Hepatocyte protective effects of the Example compounds were represented by “EC50” which was calculated from measured values. “EC50” herein means the concentration of the compound at which 50% of maximum protective effect is observed in the experiment.", "units": {"EC50": "nM"}}
{"smiles": "O=C(O)C[C@@H]1CSC(c2cc3cc(Br)cc(NC4CCCC4)c3[nH]2)=N1", "note": "[Example 68, [(R)-2-(5-bromo-7-cyclopentylamino-1H-indol-2-yl)-4,5-dihydro-thiazol-4-yl]-acetic acid]", "EC50": 490}
{"smiles": "CCOC(=O)CC[C@@H]1CSC(c2cc3cc(F)cc(NC4CCCC4)c3[nH]2)=N1", "note": "[Example 108, 3-[(R)-2-(5-fluoro-7-cyclopentylamino-1H-indol-2-yl)-4,5-dihydro-thiazol-4-yl]-propionic acid ethyl ester]", "EC50": "< 500"}
{"smiles": "Cc1cc(NC2CCCC2)c2[nH]c(C3=N[C@@H](CC(=O)O)CO3)cc2c1", "note": "[Example 119, [(S)-2-(5-methyl-7-cyclopentylamino-1H-indol-2-yl)-4,5-dihydro-oxazol-4-yl]-acetic acid]", "EC50": 170}
{"smiles": "Clc1cc(NC2CCOCC2)c2[nH]c(C3=N[C@H](CCN4CCNCC4)CS3)cc2c1", "note": "[Example 193, (5-Chloro-2-{(R)-4-[(piperazin-1-yl)-ethyl]-4,5-dihydro-thiazol-2-yl}-1H-indol-7-yl)-(tetrahydro-pyran-4-yl)-amine]", "EC50": 650}
{"smiles": "Cc1cc(NC2CCOCC2)c2[nH]c(C3=N[C@@H](CC(=O)O)CO3)cc2c1", "note": "[Example 120, [(S)-2-(5-methyl-7-(tetrahydropyran-4-yl)amino-1H-indol-2-yl)-4,5-dihydro-oxazol-4-yl]-acetic acid]", "EC50": 1120}
{"smiles": "O=C(O)C[C@@H]1CSC(c2cc3cc(Oc4cccnc4)cc(NC4CCOCC4)c3[nH]2)=N1", "note": "[Example 90, [(R)-2-(5-(pyridin-3-yl)oxy-7-(tetrahydropyran-4-yl)amino-1H-indol-2-yl)-4,5-dihydro-thiazol-4-yl]-acetic acid]", "EC50": 7920}
{"smiles": "CC1SC(c2cc3cccc(NCC4CCOCC4)c3[nH]2)=N[C@H]1C(O)C1CCCN1", "note": "(stereo partly drawn) [Example 241, (5-Methyl-[(S)-2-(7-(tetrahydropyran-4-yl)methylamino-1H-indol-2-yl)-4,5-dihydro-thiazol-4-yl])-pyrrolidin-2-yl-methanol]", "EC50": 210}
{"smiles": "OC[C@@H]1CSC(c2cc3cccc(NC4CCOC4)c3[nH]2)=N1", "note": "(stereo partly drawn) [Example 52, [(R)-2-(7-(tetrahydrofuran-3-yl)amino-1H-indol-2-yl)-4,5-dihydro-thiazol-4-yl]-methanol]", "EC50": 750}
{"smiles": "O=C(O)C[C@@H]1CSC(c2cc3cc(Oc4cccnc4)cc(NC4CCCC4)c3[nH]2)=N1", "note": "[Example 88, [(R)-2-(5-(pyridin-3-yl)oxy-7-cyclopentylamino-1H-indol-2-yl)-4,5-dihydro-thiazol-4-yl]-acetic acid]", "EC50": 1870}
{"smiles": "OC[C@@H]1CSC(c2cc3cc(Oc4cccnc4)cc(NC4CCCC4)c3[nH]2)=N1", "note": "[Example 61, [(R)-2-(5-(pyridin-3-yl)oxy-7-cyclopentylamino-1H-indol-2-yl)-4,5-dihydro-thiazol-4-yl]-methanol]", "EC50": 780}
{"smiles": "Cc1cc(NC2CCC(=O)CC2)c2[nH]c(C3=N[C@H](CC(=O)O)CS3)cc2c1", "note": "[Example 135, {(R)-2-[5-methyl-7-(4-oxo-cyclohexylamino)-1H-indol-2-yl]-4,5-dihydro-thiazol-4-yl}acetic acid]", "EC50": 1260}
{"smiles": "O=C(O)C[C@H]1CSC(c2cc3cccc(NCC4CCCCO4)c3[nH]2)=N1", "note": "(stereo partly drawn) [Example 10, 2-[(S)-2-(7-(tetrahydropyran-2-yl)methylamino-1H-indol-2-yl)-4,5-dihydro-thiazol-4-yl]-acetic acid]", "EC50": 600}
{"smiles": "CC(=O)N1CCC(Nc2cc(C)cc3cc(C4=N[C@@H](CC(=O)O)CS4)[nH]c23)C1", "note": "(stereo partly drawn) [Example 13, [(S)-2-(5-methyl-7-(1-acetylpyrrolidin-3-yl)amino-1H-indol-2-yl)-4,5-dihydro-thiazol-4-yl]-acetic acid]", "EC50": 1130}
{"smiles": "O=C(O)C[C@H]1COC(c2cc3cc(Cl)cc(NC4CCCC4)c3[nH]2)=N1", "note": "[Example 121, [(S)-2-(5-chloro-7-cyclopentylamino-1H-indol-2-yl)-4,5-dihydro-oxazol-4-yl]-acetic acid]", "EC50": 470}
{"smiles": "OCc1cc(NC2CCCC2)c2[nH]c(C3=N[C@H](CO)CS3)cc2c1", "note": "[Example 6, (R)-2-[7-cyclopentylamino-5-(hydroxymethyl)-1H-indol-2-yl]-4,5-dihydro-thiazol-4-yl-methanol]", "EC50": 4930}
{"smiles": "OCc1csc(-c2cc3cccc(NC4CCCC4)c3[nH]2)n1", "note": "[Example 133, [2-(7-Cyclopentylamino-1H-indol-2-yl)-thiazol-4-yl]-methanol]", "EC50": 310}
{"smiles": "Cc1cc(NC2CCN(C(=O)C(F)(F)F)CC2)c2[nH]c(C3=N[C@@H](CC(=O)O)CS3)cc2c1", "note": "[Example 9, [(S)-2-(5-methyl-7-(1-trifluoroacetylpiperidin-4-yl)amino-1H-indol-2-yl)-4,5-dihydro-thiazol-4-yl]-acetic acid]", "EC50": "> 2000"}
{"smiles": "O=C(O)C[C@H]1CSC(c2cc3cc(Oc4ccccc4)cc(NC4CCOCC4)c3[nH]2)=N1", "note": "[Example 16, [(S)-2-(5-phenoxy-7-(tetrahydropyran-4-yl)amino-1H-indol-2-yl)-4,5-dihydro-thiazol-4-yl]-acetic acid]", "EC50": 1290}
{"smiles": "c1cc(NC2CCCC2)c2[nH]c(C3=N[C@H](CN4CCCC4)CS3)cc2c1", "note": "[Example 158, Cyclopentyl-[2-((R)-4-pyrrolidin-1-ylmethyl-4,5-dihydro-thiazol-2-yl)-1H-indol-7-yl]-amine]", "EC50": 910}
{"smiles": "Cc1cc(NC2CCC2)c2[nH]c(C3=N[C@@H](CC(=O)O)CS3)cc2c1", "note": "[Example 19, [(S)-2-(5-methyl-7-cyclobutylamino-1H-indol-2-yl)-4,5-dihydro-thiazol-4-yl]-acetic acid]", "EC50": 350}
{"smiles": "N[C@H]1CCN(CC[C@@H]2CSC(c3cc4cc(Cl)cc(NC5CCCC5)c4[nH]3)=N2)C1", "note": "[Example 176, {2-[(R)-4-((S)-3-amino-pyrrolidin-1-ylethyl)-4,5-dihydro-thiazol-2-yl]-5-chloro-1H-indol-7-yl}-cyclopentyl-amine]", "EC50": "> 1000"}
{"smiles": "COC(=O)c1csc(-c2cc3cccc(NC4CCCC4)c3[nH]2)n1", "note": "[Example 134, [2-(7-Cyclopentylamino-1H-indol-2-yl)-thiazol-4-yl]-carboxylic acid methyl ester]", "EC50": 510}
{"smiles": "O=C(O)C[C@H]1CSC(c2cc3cccc(NCC4CCOCC4)c3[nH]2)=N1", "note": "[Example 12, [(S)-2-(7-(tetrahydropyran-4-yl)methylamino-1H-indol-2-yl)-4,5-dihydro-thiazol-4-yl]-acetic acid]", "EC50": 3250}
{"smiles": "CC(=O)Nc1cc(NC2CCCC2)c2[nH]c(C3=N[C@H](CO)CS3)cc2c1", "note": "[Example 38, [(R)-2-(5-acetylamino-7-cyclopentylamino-1H-indol-2-yl)-4,5-dihydro-thiazol-4-yl]-methanol]", "EC50": 2000}
{"smiles": "CC(=O)N1CCN(CC[C@H]2CSC(c3cc4cc(Cl)cc(NC5CCCC5)c4[nH]3)=N2)CC1", "note": "[Example 178, 1-(4-{2-[(S)-2-(7-cyclopentylamino-5-chloro-1H-indol-2-yl)-4,5-dihydro-thiazol-4-yl]-ethyl}-piperazin-1-yl)-ethanone]", "EC50": 230}
{"smiles": "Cc1cc(NCC2CCCC2)c2[nH]c(C3=N[C@@H](CC(=O)O)CS3)cc2c1", "note": "[Example 23, [(S)-2-(5-methyl-7-cyclopentylmethylamino-1H-indol-2-yl)-4,5-dihydro-thiazol-4-yl]-acetic acid]", "EC50": 140}
{"smiles": "CCOc1cc(NC2CCCC2)c2[nH]c(C3=N[C@@H](CC(=O)O)CS3)cc2c1", "note": "[Example 47, [(S)-2-(5-ethoxy-7-cyclopentylamino-1H-indol-2-yl)-4,5-dihydro-thiazol-4-yl]-acetic acid]", "EC50": 360}
{"smiles": "Cc1cc(NC2CCCC2)c2[nH]c(-c3ncc(CO)s3)cc2c1", "note": "[Example 130, [2-(5-Methyl-7-cyclopentylamino-1H-indol-2-yl)-thiazol-5-yl]-methanol]", "EC50": 100}
{"smiles": "O=C(O)CC[C@@H]1CSC(c2cc3cc(F)cc(NC4CCCC4)c3[nH]2)=N1", "note": "[Example 109, 3-[(R)-2-(5-fluoro-7-cyclopentylamino-1H-indol-2-yl)-4,5-dihydro-thiazol-4-yl]-propionic acid]", "EC50": 610}
{"tested_on": "primary hepatocytes isolated from rats", "test": "Cell protective effects against doxorubicin in hepatocytes (WST-1 cell viability)", "type": "cell-based", "settings": "primary rat hepatocytes pretreated with compound for 30 min, then doxorubicin; viability by WST-1 after 24-48 h", "protocol": "as §1, §2", "units": {"EC50": "nM"}}
{"smiles": "CS(=O)(=O)CC[C@@H]1CSC(c2cc3cccc(NC4CCOCC4)c3[nH]2)=N1", "note": "[Example 218]", "EC50": 260}
{"smiles": "O=C(C1CCCO1)N1CCN(CC[C@H]2CSC(c3cc4cc(Oc5ccccc5)cc(NC5CCCC5)c4[nH]3)=N2)CC1", "note": "(stereo partly drawn) [Example 234]", "EC50": 90}
{"smiles": "CCOc1cc(NC2CCCC2)c2[nH]c(C3=N[C@@H](CCO)CS3)cc2c1", "note": "[Example 48, [(S)-2-(5-ethoxy-7-cyclopentylamino-1H-indol-2-yl)-4,5-dihydro-thiazol-4-yl]-ethanol]", "EC50": 200}
{"smiles": "Cc1cc(NC2CCOCC2)c2[nH]c(C3=N[C@@H](CCO)CS3)cc2c1", "note": "[Example 24, [(S)-2-(5-methyl-7-(tetrahydropyran-4-yl)amino-1H-indol-2-yl)-4,5-dihydro-thiazol-4-yl]-ethanol]", "EC50": 130}
